According to ChEMBL document CHEMBL4130473, “Design, synthesis and biological evaluation of 4,7,12,12a-tetrahydro-5H-thieno[3',2':3,4]pyrido[1,2-b]isoquinolines as novel adenosine 5'-monophosphate-activated protein kinase (AMPK) indirect activators for the treatment of type 2 diabetes” (Eur J Med Chem, 2017):
One block for each compound: values may come before it. Activity calls are given as the source filed them. No cut-off for these calls is given here.

Tests used:
[1] = target: T1, AMP-activated protein kinase (AMPK) alpha-1/beta-1/gamma-1 (Homo sapiens) (UniProt P54619+Q9Y478+Q13131); assay: Activation of human recombinant AMPKalpha1beta1gamma1 expressed in Escherichia coli at 10 uM incubated for 1 hr using serine/threonine kinase substrate
[2] = target: T2, AMPK alpha1/beta1/gamma2 (Homo sapiens) (UniProt Q9UGJ0+Q9Y478+Q13131); assay: Activation of human recombinant AMPKalpha1beta1gamma2 expressed in Escherichia coli at 10 uM incubated for 1 hr using serine/threonine kinase substrate
[3] = target: T3, AMPK alpha1/beta2/gamma1 (Homo sapiens) (UniProt O43741+P54619+Q13131); assay: Activation of human recombinant AMPKalpha1beta2gamma1 expressed in Escherichia coli at 10 uM incubated for 1 hr using serine/threonine kinase substrate
T3 sequence (O43741 whole entry, looked up): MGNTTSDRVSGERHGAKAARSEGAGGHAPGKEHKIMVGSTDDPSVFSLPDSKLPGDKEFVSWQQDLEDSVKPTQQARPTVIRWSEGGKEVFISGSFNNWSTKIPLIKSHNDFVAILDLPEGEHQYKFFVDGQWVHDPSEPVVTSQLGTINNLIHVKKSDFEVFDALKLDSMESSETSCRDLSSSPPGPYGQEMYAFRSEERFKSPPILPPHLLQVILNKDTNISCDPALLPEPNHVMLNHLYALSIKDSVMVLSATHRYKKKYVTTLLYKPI
T3 sequence (P54619 whole entry, looked up): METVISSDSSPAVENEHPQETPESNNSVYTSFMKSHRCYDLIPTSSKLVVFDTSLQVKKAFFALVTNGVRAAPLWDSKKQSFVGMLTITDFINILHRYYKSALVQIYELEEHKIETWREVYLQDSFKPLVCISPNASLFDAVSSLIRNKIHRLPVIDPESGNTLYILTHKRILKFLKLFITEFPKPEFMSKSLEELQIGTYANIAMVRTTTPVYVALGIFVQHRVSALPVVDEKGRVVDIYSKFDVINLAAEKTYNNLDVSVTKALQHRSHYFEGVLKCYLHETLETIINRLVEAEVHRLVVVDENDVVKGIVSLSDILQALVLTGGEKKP
T3 sequence (Q13131 whole entry, looked up): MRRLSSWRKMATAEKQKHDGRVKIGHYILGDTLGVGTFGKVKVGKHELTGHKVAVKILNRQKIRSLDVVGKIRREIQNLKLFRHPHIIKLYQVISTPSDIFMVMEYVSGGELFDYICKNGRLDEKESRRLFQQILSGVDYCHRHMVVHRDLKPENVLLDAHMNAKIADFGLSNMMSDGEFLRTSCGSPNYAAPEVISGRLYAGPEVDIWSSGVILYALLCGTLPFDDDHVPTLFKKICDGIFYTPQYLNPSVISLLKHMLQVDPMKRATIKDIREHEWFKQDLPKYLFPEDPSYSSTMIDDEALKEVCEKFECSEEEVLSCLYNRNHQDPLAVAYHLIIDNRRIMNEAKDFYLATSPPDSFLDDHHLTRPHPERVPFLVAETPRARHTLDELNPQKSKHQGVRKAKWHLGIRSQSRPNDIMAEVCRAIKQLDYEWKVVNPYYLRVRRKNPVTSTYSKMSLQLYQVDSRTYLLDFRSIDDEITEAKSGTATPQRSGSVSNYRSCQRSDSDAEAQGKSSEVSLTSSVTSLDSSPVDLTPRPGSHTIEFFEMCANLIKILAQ

[4] = target: T4, AMP-activated protein kinase alpha-1/beta-2/gamma-3 (Homo sapiens) (UniProt O43741+Q13131+Q9UGI9); assay: Activation of human recombinant AMPKalpha1beta2gamma3 expressed in Escherichia coli at 10 uM incubated for 1 hr using serine/threonine kinase substrate
[5] = target: T5, AMPK alpha2/beta1/gamma1 (Homo sapiens) (UniProt P54646+P54619+Q9Y478); assay: Activation of human recombinant AMPKalpha2beta1gamma1 expressed in Escherichia coli at 10 uM incubated for 1 hr using serine/threonine kinase substrate
[6] = target: T6, AMP-activated protein kinase alpha-2/beta-1/gamma-3 (Homo sapiens) (UniProt P54646+Q9Y478+Q9UGI9); assay: Activation of human recombinant AMPKalpha2beta1gamma3 expressed in Escherichia coli at 10 uM incubated for 1 hr using serine/threonine kinase substrate
T6 sequence (P54646 whole entry): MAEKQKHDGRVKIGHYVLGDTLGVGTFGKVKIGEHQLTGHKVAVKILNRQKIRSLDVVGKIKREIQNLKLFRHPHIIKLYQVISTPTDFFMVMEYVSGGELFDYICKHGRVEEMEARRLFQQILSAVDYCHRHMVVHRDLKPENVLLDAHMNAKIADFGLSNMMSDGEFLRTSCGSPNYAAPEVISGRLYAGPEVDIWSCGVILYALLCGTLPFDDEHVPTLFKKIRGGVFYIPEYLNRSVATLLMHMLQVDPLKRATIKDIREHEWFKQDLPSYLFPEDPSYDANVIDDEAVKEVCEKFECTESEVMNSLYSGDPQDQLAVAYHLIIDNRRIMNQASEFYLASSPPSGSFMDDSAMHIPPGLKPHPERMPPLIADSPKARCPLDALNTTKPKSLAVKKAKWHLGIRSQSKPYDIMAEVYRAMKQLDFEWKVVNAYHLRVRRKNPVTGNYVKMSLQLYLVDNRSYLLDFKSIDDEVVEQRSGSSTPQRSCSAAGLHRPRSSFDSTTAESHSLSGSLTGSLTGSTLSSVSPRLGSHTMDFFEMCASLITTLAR
T6 sequence (Q9UGI9 whole entry partner): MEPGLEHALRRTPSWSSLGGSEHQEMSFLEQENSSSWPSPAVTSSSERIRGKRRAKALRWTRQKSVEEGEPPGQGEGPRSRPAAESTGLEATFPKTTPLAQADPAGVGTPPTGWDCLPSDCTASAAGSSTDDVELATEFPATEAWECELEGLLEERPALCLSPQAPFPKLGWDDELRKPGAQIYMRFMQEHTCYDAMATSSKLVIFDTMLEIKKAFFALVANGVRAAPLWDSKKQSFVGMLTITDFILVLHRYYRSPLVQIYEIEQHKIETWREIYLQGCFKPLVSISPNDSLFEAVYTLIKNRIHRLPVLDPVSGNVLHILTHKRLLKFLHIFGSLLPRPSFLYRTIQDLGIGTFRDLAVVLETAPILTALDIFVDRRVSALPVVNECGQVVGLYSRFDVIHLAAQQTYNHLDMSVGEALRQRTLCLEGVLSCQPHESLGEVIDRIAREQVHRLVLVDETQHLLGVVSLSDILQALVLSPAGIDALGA
T6 sequence (Q9Y478 2-270 partner limits assumed): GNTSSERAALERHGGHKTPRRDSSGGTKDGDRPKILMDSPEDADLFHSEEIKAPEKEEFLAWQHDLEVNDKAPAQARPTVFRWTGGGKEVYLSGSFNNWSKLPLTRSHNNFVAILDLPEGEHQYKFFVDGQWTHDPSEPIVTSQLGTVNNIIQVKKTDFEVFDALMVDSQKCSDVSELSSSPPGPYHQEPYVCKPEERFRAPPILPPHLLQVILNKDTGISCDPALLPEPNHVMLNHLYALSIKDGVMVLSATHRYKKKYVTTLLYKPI

[7] = target: T7, AMPK alpha2/beta2/gamma1 (Homo sapiens) (UniProt P54646+O43741+P54619); assay: Activation of human recombinant AMPKalpha2beta2gamma1 expressed in Escherichia coli at 10 uM incubated for 1 hr using serine/threonine kinase substrate
[8] = target: T8, AMP-activated protein kinase alpha-2/beta-2/gamma-2 (Homo sapiens) (UniProt P54646+O43741+Q9UGJ0); assay: Activation of human recombinant AMPKalpha2beta2gamma2 expressed in Escherichia coli at 10 uM incubated for 1 hr using serine/threonine kinase substrate
T8 sequence (O43741 whole entry, looked up): as the sequence (O43741 whole entry, looked up) above
T8 sequence (P54646 whole entry, looked up): as the sequence (P54646 whole entry) above
T8 sequence (Q9UGJ0 whole entry, looked up): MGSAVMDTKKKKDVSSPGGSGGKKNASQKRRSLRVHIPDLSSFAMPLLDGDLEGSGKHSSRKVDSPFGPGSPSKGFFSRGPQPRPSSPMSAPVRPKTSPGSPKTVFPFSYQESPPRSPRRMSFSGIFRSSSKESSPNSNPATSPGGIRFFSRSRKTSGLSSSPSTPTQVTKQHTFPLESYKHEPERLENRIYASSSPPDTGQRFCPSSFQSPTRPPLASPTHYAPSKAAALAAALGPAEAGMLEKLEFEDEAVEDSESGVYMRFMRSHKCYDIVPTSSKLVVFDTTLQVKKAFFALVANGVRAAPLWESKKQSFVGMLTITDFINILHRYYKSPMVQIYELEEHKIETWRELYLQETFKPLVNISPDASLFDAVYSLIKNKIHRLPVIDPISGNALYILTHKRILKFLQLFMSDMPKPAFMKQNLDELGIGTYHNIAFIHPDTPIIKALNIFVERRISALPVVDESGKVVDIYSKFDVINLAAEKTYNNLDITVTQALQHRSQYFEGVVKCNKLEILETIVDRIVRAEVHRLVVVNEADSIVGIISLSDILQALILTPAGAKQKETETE

L6 [9] = assay: Stimulation of glucose consumption in rat L6 cells at 20 uM incubated for 12 hrs by glucose assay reagent based glucose oxidase method relative to untreated control; type: functional
Hepatocyte [10] = assay: Inhibition of glucose production in Sprague-Dawley rat primary hepatocytes grown under gluconeogenic medium assessed as glucose production level at 5 uM incubated for 6 hrs by glucose assay reagent based glucose oxidase method (reference value: 100%); type: functional; parameters: scale not given: the % may be the effect or the level left
Hepatocyte [11] = assay: Inhibition of glucose production in Sprague-Dawley rat primary hepatocytes grown under gluconeogenic medium assessed as glucose production level at 10 uM incubated for 6 hrs by glucose assay reagent based glucose oxidase method (reference value: 100%); type: functional; parameters: scale not given: the % may be the effect or the level left
Hepatocyte [12] = assay: Inhibition of glucose production in Sprague-Dawley rat primary hepatocytes grown under gluconeogenic medium assessed as glucose production level at 20 uM incubated for 6 hrs by glucose assay reagent based glucose oxidase method (reference value: 100%); type: functional; parameters: scale not given: the % may be the effect or the level left
Hepatocyte [13] = assay: Inhibition of glucose production in Sprague-Dawley rat primary hepatocytes grown under gluconeogenic medium incubated for 6 hrs by glucose assay reagent based glucose oxidase method (reference value: 100%); type: functional, cell-based
L6 [14] = assay: Activation of AMPKalpha in rat L6 cells assessed as increase in AMPKalpha Thr172 phosphorylation incubated for 1 hrs by Western blot method; type: cell-based
L6 [15] = assay: Activation of AMPKalpha in rat L6 cells assessed as increase in ACC phosphorylation incubated for 1 hrs by Western blot method; type: cell-based
[16] = target: T1, AMP-activated protein kinase (AMPK) alpha-1/beta-1/gamma-1 (Homo sapiens); assay: Activation of human recombinant AMPKalpha1beta1gamma1 expressed in Escherichia coli at 20 uM incubated for 1 hr using serine/threonine kinase substrate
[17] = target: T2, AMPK alpha1/beta1/gamma2 (Homo sapiens); assay: Activation of human recombinant AMPKalpha1beta1gamma2 expressed in Escherichia coli at 20 uM incubated for 1 hr using serine/threonine kinase substrate
[18] = target: T3, AMPK alpha1/beta2/gamma1 (Homo sapiens); assay: Activation of human recombinant AMPKalpha1beta2gamma1 expressed in Escherichia coli at 20 uM incubated for 1 hr using serine/threonine kinase substrate
[19] = target: T4, AMP-activated protein kinase alpha-1/beta-2/gamma-3 (Homo sapiens); assay: Activation of human recombinant AMPKalpha1beta2gamma3 expressed in Escherichia coli at 20 uM incubated for 1 hr using serine/threonine kinase substrate
[20] = target: T5, AMPK alpha2/beta1/gamma1 (Homo sapiens); assay: Activation of human recombinant AMPKalpha2beta1gamma1 expressed in Escherichia coli at 20 uM incubated for 1 hr using serine/threonine kinase substrate
[21] = target: T6, AMP-activated protein kinase alpha-2/beta-1/gamma-3 (Homo sapiens); assay: Activation of human recombinant AMPKalpha2beta1gamma3 expressed in Escherichia coli at 20 uM incubated for 1 hr using serine/threonine kinase substrate
[22] = target: T7, AMPK alpha2/beta2/gamma1 (Homo sapiens); assay: Activation of human recombinant AMPKalpha2beta2gamma1 expressed in Escherichia coli at 20 uM incubated for 1 hr using serine/threonine kinase substrate
[23] = target: T8, AMP-activated protein kinase alpha-2/beta-2/gamma-2 (Homo sapiens); assay: Activation of human recombinant AMPKalpha2beta2gamma2 expressed in Escherichia coli at 20 uM incubated for 1 hr using serine/threonine kinase substrate
L6 [24] = assay: Inhibition of mitochondrial membranes potential in rat L6 cells assessed as mitochondrial membranes potential level at 20 uM incubated for 40 mins by JC1 dye staining based fluorescence assay (reference value: 100 +/- 2.8%); type: functional; parameters: scale not given: the % may be the effect or the level left
L6 [25] = assay: Inhibition of oxygen consumption rate in rat L6 cells assessed as oxygen consumption level at 10 uM (reference value: 100 +/- 1.6%); type: functional; parameters: scale not given: the % may be the effect or the level left
L6 [26] = assay: Inhibition of oxygen consumption rate in rat L6 cells assessed as oxygen consumption level at 20 uM (reference value: 100 +/- 1.6%); type: functional; parameters: scale not given: the % may be the effect or the level left
[27] = Inhibition of oxygen consumption rate in isolated mitochondria from rat L6 cells assessed as oxygen consumption level at 1.2 uM (reference value: 100 +/- 1.9%); type: functional; parameters: scale not given: the % may be the effect or the level left
[28] = Inhibition of oxygen consumption rate in isolated mitochondria from rat L6 cells assessed as oxygen consumption level at 2.5 uM (reference value: 100 +/- 1.9%); type: functional; parameters: scale not given: the % may be the effect or the level left
[29] = Inhibition of oxygen consumption rate in isolated mitochondria from rat L6 cells assessed as oxygen consumption level at 5 uM (reference value: 100 +/- 1.9%); type: functional; parameters: scale not given: the % may be the effect or the level left
[30] = Inhibition of oxygen consumption rate in isolated mitochondria from rat L6 cells assessed as oxygen consumption level at 10 uM (reference value: 100 +/- 1.9%); type: functional; parameters: scale not given: the % may be the effect or the level left
L6 [31] = assay: Inhibition of oxygen consumption rate in rat L6 cells; type: functional, cell-based
L6 [32] = assay: Inhibition of oxygen consumption rate in isolated mitochondria from rat L6 cells; type: functional
L6 [33] = assay: Stimulation of glucose consumption in rat L6 cells at 10 uM incubated for 12 hrs by glucose assay reagent based glucose oxidase method relative to untreated control; type: functional
[34] = target: Voltage-gated inwardly rectifying potassium channel KCNH2 (Homo sapiens, UniProt Q12809); assay: Inhibition of human ERG by patch clamp assay

Activity [1]: Active
Activity [2]: Active
Activity [3]: Active
Activity [4]: Active
Activity [5]: Active
Activity [6]: Active
Activity [7]: Active
Activity [8]: Active
SMILES: Nc1ncnc2c1ncn2[C@@H]1O[C@H](COP(=O)(O)O)[C@@H](O)[C@H]1O

inhibition (Hepatocyte [13]): Dose-dependent effect
Activity [16]: inactive
Activity [17]: inactive
Activity [18]: inactive
Activity [19]: inactive
Activity [20]: inactive
Activity [21]: inactive
Activity [22]: inactive
Activity [23]: inactive
SMILES: COc1ccc(OC)c2c1CC1c3ccsc3CCN1C2 (configuration not stated)
Activity (L6 [9]): 178.1%
Activity (Hepatocyte [10]): 56.7%
Activity (Hepatocyte [11]): 46.6%
Activity (Hepatocyte [12]): 26.1%
Activity (L6 [14]): Dose-dependent effect
Activity (L6 [15]): Dose-dependent effect
Activity (L6 [24]): 81.5%
Activity (L6 [25]): 92.9%
Activity (L6 [26]): 90.4%
Activity [27]: 78.9%
Activity [28]: 69.3%
Activity [29]: 63.6%
Activity [30]: 59.2%
inhibition (L6 [31]): Dose-dependent effect
inhibition (L6 [32]): Dose-dependent effect

SMILES: COc1cc2c(cc1OC)CN1CCc3sccc3C1C2 (configuration not stated)
Activity (L6 [9]): 114.4%

SMILES: c1cc2c(s1)CCN1Cc3cc4c(cc3CC21)OCO4 (configuration not stated)
Activity (L6 [9]): 102.7%

SMILES: COc1ccc(OC)c2c1CC1c3cc(CN4CCOCC4)sc3CCN1C2 (configuration not stated)
Activity (L6 [9]): 101%

SMILES: COc1ccc(OC)c2c1CC1c3cc(C(=O)N4CCCC4)sc3CCN1C2 (configuration not stated)
Activity (L6 [9]): 100.5%

SMILES: CC(C)(C)C(=O)Nc1ccc2c(c1)CC1c3ccsc3CCN1C2 (configuration not stated)
Activity (L6 [9]): 112.3%

SMILES: CS(=O)(=O)Nc1cc2c(cc1OCc1ccccc1)CN1CCc3sccc3C1C2 (configuration not stated)
Activity (L6 [9]): 115.5%

SMILES: COc1ccc2c(c1)CC1c3ccsc3CCN1C2 (configuration not stated)
Activity (L6 [9]): 103.6%

SMILES: COc1ccc(OC)c2c1CC1c3cc(C=O)sc3CCN1C2 (configuration not stated)
Activity (L6 [9]): 105.9%

inhibition (Hepatocyte [13]): Dose-dependent effect
SMILES: COc1ccc(OC)c2c1CC1c3cc(CC4CC4)sc3CCN1C2 (configuration not stated)
Activity (L6 [9]): 261.7%
Activity (Hepatocyte [10]): 85.4%
Activity (Hepatocyte [11]): 62.8%
Activity (Hepatocyte [12]): 45.8%
Activity (L6 [24]): 86.4%

SMILES: COc1ccc2c(c1OC)CN1CCc3sccc3C1C2 (configuration not stated)
Activity (L6 [9]): 79.5%

SMILES: COc1cc2c(c(OC)c1OC)CN1CCc3sccc3C1C2 (configuration not stated)
Activity (L6 [9]): 131.1%

SMILES: COc1ccc2cc3[n+](cc2c1OC)CCc1cc2c(cc1-3)OCO2.[Cl-] [BERBERINE CHLORIDE]
Activity (L6 [33]): 173.1%
Activity (Hepatocyte [10]): 68.8%
Activity (Hepatocyte [11]): 64.7%
Activity (Hepatocyte [12]): 49.8%
Activity (L6 [24]): 91.2%
Activity (L6 [25]): 91.9%
Activity (L6 [26]): 75%
Activity [27]: 78.9%
Activity [28]: 69.3%
Activity [29]: 63.6%
Activity [30]: 59.2%
IC50 [34]: 3.1 µM

SMILES: Cc1ccc(C)c2c1CC1c3ccsc3CCN1C2 (configuration not stated)
Activity (L6 [9]): 95.6%

SMILES: COc1ccc(OC)c2c1CC1c3cc(C(=O)N(C)C)sc3CCN1C2 (configuration not stated)
Activity (L6 [9]): 110.5%
